Assay results taken from patent US12491188B2, “Small molecule PARG inhibitors and methods of use thereof” (Board of Regents, The University of Texas System, priority 2019, dated 2025).

Assays:
PC3 cells = experiment: PAR / γH2AX immuno-staining and high content imaging after IR; format: cell-based, human; details: PC3, 2 h treatment, 7 Gy, 1 h recovery
Method: FIGS. 13a-g show PARGi sensitizes cells to ionizing radiation damage. (FIG. 13a) A low-resolution fixed intensity image-montage of the total cell numbers 3×(3×3) imaged per experimental group. A high level of PAR accumulation and γH2AX foci formation in cells exposed to PARGi. PC3 cells treated DMSO or PARG inhibitors (2120 or 2131) for 2 hours, irradiated 7Gy, recovered for 1 hour were fixed and immuno-stained with Poly(ADP)-Ribose (PAR, green), γH2AX (red) and Hoechst (blue) antibodies. Cells were analyzed with quantitative high content imaging. (FIGS. 13b-e) Quantitative analysis of PAR intensity (FIG. 13b), γH2AX intensities (FIG. 13c), the number of cells showing PAR/γH2AX co-localizations (FIG. 13d) and nucleus count for the total number of cells analyzed for each group (FIG. 13e). […] Cells were treated with 2131 for an hour followed by 7Gy ionizing radiation then allowed to recover for 2 h before total cell-lysate preparation and immunoblotting with anti-PAR (upper panel) followed by anti-PARG (middle) and Anti-PCNA (lower) as controls. […] Anti-PAR (green), Anti-γH2AX (red) and Hoechst 33342 (blue). Scale bar 25 μm.
Immuno-staining and imaging. PC3 cells were grown to 75% confluence in 24-well 25 μm film bottom Eppendorf black cell Imaging plates (0030741005), treated with either DMSO or designated inhibitors for 2 hours, irradiated 7 Gy X-ray and allowed to recover for an hour before fixing with 4% (wt/vol) paraformaldehyde, pH 8.0. All subsequent steps were performed at pH8.0. Cells were washed 6-7 times with PBS, permeabilized 0.5% Triton X-100 in PBS on ice for 20 min, blocked overnight with PBS/5% Goat serum/3% BSA/0.5% Triton X-100. Cells were incubated with primary antibody 1:250 dilution in PBS/5% BSA/0.5% Triton X-100 overnight at 4° C. Following 6× wash with PBS pH 8.0, cells were exposed to fluorescence labelled secondary antibody diluted 1:500 in PBS/5% BSA/0.5% Triton X-100 for 1 hour at room temperature. Following 6-7× PBS washes, cells were fixed again with 4% PFA at room temperature for 20 min. […]

PCNA in PC3 cells = PCNA in PC3 cells (Homo sapiens (Human), UniProt P12004); experiment: Cellular thermal shift assay (CETSA), PCNA control; format: cell-based; details: 10 μM, 2 h
Method: PC3 cells treated with 10 μM JA2131 or DMSO were temperature shocked as described in the Examples and the resulting non-aggregated proteins were analyzed with Anti-PARG or Anti-PCNA antibody. Anti-Histone H3 was used as loading control.
Cellular thermal shift assay (CETSA). CETSA was performed as described in Molina et al., 2013. Briefly, PC3 cells were treated with 10 μM JA2131 or an equivalent volume of DMSO for 2 h, washed three times with PBS and extracted for total cell lysate. 10% glycerol was added to the samples before subjecting to heat. Gradient thermal cycler (C1000 Touch, Bio-Rad) was used to heat samples at 42, 57, 66, 72, 77 and 85° C. for 3 min and chilled on ice for 5 min. Then, samples were centrifuged at 14,000 rpm for 20 min at 4° C. Supernatants were carefully removed and analyzed by Western blotting analysis.

[1] = test system: MDA-MB-231 control and PARG-KD cells; experiment: Western blot of cellular PARylation (anti-PAR); format: cell-based, human
Method: Thus, dose-dependent JA2131-induced cellular PARylation with and without IR was investigated. For combined IR treatment, MDA-MB-231 cells were treated with JA2131 for 2 h, followed by 7 Gy X-ray and then allowed to recover for an hour before cellular extraction and Western blotting analysis.
Using shRNA, next, a stable MDA-MB-231 PARG knockdown (PARG-KD) cell-line was generated (FIG. 23). Comparison of PARGi JA2131-induced PARylation in PARG-KD and control cells was performed. It was reasoned that PARG-KD cells would show a reduced response to a selective PARGi as the stable PARG-KD cells would have to adopt a PARG-independent survival mechanism. MDA-MB-231 control cells and PARG-KD cells were treated with JA2131 then total cell lysates were subjected to immunoblotting with anti-PAR antibody, followed by immunodetection for anti-PARG, PARP1 and actin antibody (FIG. 22b). Untreated PARG-KD cells show a higher baseline level of PARylation than the control cells. […] Dose-response curves comparing control and PARG-KD cells further validate the selective action of JA2131 on control cells expressing PARG, but not on the PARG-KD cells (FIG. 25).
Antibodies and western blots. Cells were grown in 6-well plates and 10 cm dishes, treated with PARGi for 2 hours, irradiated and recovered for 1 hour before harvesting. Cells were irradiated, ranging from 1 to 10 Gy using RAD SOURCE, RS-2000, Biological System, RadSource.com. Cells were washed with phosphate buffer and saline (PBS) and lysed with buffer containing 50 mM Hepes, pH 7.5, 1% (v/v) igepal-C630, 1 mg/ml bacitracin, 1 mM EDTA, 10 mM NaF, 1 mM sodium orthovanadate, 10% (v/v) glycerol, 50 mM NaCl, 1 mM PMSF, and Protease Inhibitor Cocktail Set III (EMD Millipore). The detergent-soluble fraction was used for Western blotting. Cell fractionation was carried out using the Subcellular Protein Fractionation Kit (#78840, ThermoFisher) according to the manufacturer's instruction. Primary antibodies were purchased from the following sources; Actin, γH2AX and Histone-H3 was from Cell Signaling Technology. H2AX and LAMB1 were from Invitrogen/ThermoFisher. PCNA and p53 were from Santa Cruz biotechnology. Anti-PAR (10H) was from EMD Millipore, anti-PARG was from Cell Signaling Technology, and Anti-PARP1 was from ABCAM. Secondary antibodies were conjugated HRP (Cell Signaling) and ECL Clarity was purchased from Bio-Rad. All primary and secondary antibodies were diluted 1:1000 with 5% non-fat Blotting Grade Blocking Reagent in 1× TBST, except for anti-PAR 1:500.

PARP1 = PARP1 (Homo sapiens (Human), UniProt P09874); experiment: In vitro PARP1 auto-PARylation
Chain of PARP1 (P09874 whole entry): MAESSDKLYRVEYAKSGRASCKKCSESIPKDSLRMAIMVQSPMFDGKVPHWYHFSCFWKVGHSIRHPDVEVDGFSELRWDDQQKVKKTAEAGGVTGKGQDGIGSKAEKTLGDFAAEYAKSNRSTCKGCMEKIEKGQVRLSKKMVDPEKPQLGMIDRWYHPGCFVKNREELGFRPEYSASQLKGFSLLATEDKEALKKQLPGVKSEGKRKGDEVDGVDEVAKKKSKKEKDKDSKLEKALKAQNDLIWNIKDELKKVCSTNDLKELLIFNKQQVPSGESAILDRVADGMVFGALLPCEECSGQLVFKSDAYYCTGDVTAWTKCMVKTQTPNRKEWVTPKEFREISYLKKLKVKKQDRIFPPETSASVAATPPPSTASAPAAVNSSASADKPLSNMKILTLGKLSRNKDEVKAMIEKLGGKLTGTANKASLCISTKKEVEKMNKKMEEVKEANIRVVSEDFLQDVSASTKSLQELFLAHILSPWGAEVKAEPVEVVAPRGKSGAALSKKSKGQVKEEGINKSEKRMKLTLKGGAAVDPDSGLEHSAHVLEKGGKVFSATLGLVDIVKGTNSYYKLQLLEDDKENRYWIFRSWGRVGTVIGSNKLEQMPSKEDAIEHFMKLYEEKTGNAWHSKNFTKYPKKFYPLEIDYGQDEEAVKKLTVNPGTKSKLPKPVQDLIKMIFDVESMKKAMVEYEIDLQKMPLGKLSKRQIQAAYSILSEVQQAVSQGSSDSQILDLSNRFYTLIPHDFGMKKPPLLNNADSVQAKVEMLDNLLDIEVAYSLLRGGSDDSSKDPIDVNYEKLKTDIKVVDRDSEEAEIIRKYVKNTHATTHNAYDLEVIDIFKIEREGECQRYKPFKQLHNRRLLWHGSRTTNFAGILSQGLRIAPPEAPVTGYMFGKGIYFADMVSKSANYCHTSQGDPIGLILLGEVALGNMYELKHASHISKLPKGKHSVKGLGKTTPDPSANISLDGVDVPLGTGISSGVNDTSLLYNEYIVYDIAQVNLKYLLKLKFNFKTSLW

Chain of PCNA in PC3 cells (P12004 whole entry): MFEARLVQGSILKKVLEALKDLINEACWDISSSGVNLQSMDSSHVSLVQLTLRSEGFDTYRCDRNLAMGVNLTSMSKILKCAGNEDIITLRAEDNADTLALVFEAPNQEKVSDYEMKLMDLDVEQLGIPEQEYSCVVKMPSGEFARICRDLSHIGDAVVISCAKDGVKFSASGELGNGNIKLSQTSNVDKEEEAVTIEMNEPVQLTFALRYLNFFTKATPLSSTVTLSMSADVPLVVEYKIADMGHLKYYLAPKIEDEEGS

Which “cells showing colocalization of PAR and γH2AX foci” value (PC3 cells) does the source give for O=C1C(Cl)=C(Cl)C(Cl)(Cl)C(Cl)=C1Cl [JA2131] here?
The value was “at least 50%”.

What about the “increase in PAR accumulation following IR in comparison to untreated cells” value (PC3 cells) of the same compound?
Its value is 20 fold.

And the “γH2AX staining and foci formation, PARGi-treated vs control cells” value (PC3 cells)?
The value was > 10 fold.

What about the “change in thermal stability of PCNA control” value (PCNA in PC3 cells) of the same compound?
Its value is “no significant change”.

And the “cellular PARylation, PARGi combined with IR” value ([1]; MDA-MB-231, 100 nM, 2 h, 7 Gy X-ray, 1 h recovery)?
Its value is “massive increase in cellular PARylation”.

And the “cellular PARylation, PARGi alone” value ([1]; MDA-MB-231, without IR, 1 to 5 μM doses)?
Its value is “dose-dependent increase in cellular PARylation”.

And the “PAR accumulation in PARG-KD cells” value ([1]; MDA-MB-231 PARG knockdown cells)?
The value was “did not affect the level of PAR accumulation”.

And the “PAR accumulation in control cells expressing PARG” value ([1]; MDA-MB-231 control cells)?
Its value is “measurable increase in PAR”.

And the “concentration up to which PARP1 activation was not inhibited” value (PARP1; in vitro PARP1 auto PARylation)?
The value was > 100 µM.

And the “effect on PARP1 auto-PARylation / PAR synthesis by PARP1” value (PARP1; increasing concentration of compound)?
Its value is “no effect”.
